The results in this text go back to ChEMBL document CHEMBL5154708, “Synthesis of tropane-based σ1 receptor antagonists with antiallodynic activity” (Eur J Med Chem, 2022).

Data set [1] addresses Sigma non-opioid intracellular receptor 1 (Cavia porcellus, UniProt Q60492).
The nature of data set [2]: Distribution coefficient between n-Octanol and aqueous buffer, logD of the compound in pH 7.4 buffer by LC/MS analysis. Type of data set: physicochemical.
In data set [3] the target is T1, Sigma intracellular receptor 2 (Rattus norvegicus, UniProt Q5U3Y7).
T1 sequence (Q5U3Y7 whole entry): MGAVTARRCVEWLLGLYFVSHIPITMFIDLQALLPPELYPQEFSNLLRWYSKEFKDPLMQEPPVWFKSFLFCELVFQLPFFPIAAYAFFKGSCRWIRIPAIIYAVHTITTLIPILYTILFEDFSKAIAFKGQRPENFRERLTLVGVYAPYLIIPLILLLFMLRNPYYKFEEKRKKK
Nature of the data set: Displacement of [3H]di-O-tolylguanidine from sigma 2 receptor in rat liver membrane by competitive radioligand receptor binding assay. Type of data set: cell membranes. (In general: Loss of bound radioactivity is the signal in a displacement assay; it reports binding, not function.)

For data set [4], the system named is Mus musculus. Nature of the data set: Antiallodynic activity in capsaicin-induced mechanical allodynia CD1 mouse model assessed as reduction in mechanical allodynia administered subcutaneously preincubated for 30 min followed by capsaicin injection and measured after 15 mins by Von Frey filament assay. It counts as functional, organism-based. The following applies: dose 8-32 mg/kg, route sc, time 45.0 min, DDE = dose-dependent effect.

Data set [5] can be described thus: Drug metabolism in mouse liver microsomes assessed as compound oxidization incubated for 90 mins in presence of NAPDH. Type of data set: ADME, Microsome. The following applies: read-out: Drug metabolism. For orientation: Liver microsomes are vesicles of endoplasmic reticulum, rich in cytochrome P450 enzymes.
In data set [6] the target is Albumin (Homo sapiens, UniProt P02768). In words: Protein binding in human serum albumin by HPAC analysis. Conditions: read-out: PB (converted). It counts as ADME.
Albumin, sequence (P02768 whole entry): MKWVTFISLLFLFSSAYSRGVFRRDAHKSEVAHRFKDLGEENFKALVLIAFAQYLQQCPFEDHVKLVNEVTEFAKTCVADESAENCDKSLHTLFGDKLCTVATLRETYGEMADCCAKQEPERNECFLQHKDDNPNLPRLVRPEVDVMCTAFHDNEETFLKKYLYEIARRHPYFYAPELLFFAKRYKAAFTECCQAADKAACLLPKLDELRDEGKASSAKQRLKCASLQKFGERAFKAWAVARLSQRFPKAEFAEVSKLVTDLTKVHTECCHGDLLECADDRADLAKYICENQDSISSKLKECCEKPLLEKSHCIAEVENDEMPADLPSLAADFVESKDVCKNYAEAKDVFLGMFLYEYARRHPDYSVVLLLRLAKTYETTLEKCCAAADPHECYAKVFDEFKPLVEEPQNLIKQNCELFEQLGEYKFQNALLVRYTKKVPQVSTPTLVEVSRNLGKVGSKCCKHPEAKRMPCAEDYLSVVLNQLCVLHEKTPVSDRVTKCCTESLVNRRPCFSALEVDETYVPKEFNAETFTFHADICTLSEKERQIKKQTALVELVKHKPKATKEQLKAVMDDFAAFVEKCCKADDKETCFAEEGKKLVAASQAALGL

Sigma non-opioid intracellular receptor 1, sequence (Q60492 whole entry): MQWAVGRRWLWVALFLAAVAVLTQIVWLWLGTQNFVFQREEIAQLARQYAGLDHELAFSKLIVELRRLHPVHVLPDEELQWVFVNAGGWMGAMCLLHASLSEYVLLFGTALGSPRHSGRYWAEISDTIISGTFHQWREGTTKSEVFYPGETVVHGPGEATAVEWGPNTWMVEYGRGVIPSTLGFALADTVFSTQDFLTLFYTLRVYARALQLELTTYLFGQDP

`O[C@@H](CN1[C@@H]2CC[C@H]1C/C(=C\c1ccc(F)cc1)C2)c1ccccc1`: the Ki in data set [1] was determined as 0.0008 µM; in data set [3], 0.01 µM. The log distribution coefficient (logD) in data set [2] is 3.06. Also, the Activity entry in data set [4] is “Dde”. Besides, the metabolised at 1.5 h in data set [5] worked out at 32%. The fraction unbound in data set [6] is 0.05.

For the compound `O[C@H](CN1[C@@H]2CC[C@H]1C/C(=C/c1ccc(F)cc1)C2)c1ccccc1`, the values for the Ki in data set [1] and in data set [3] were 0.00045 µM and 0.011 µM, respectively.

As to `O[C@H](CN1[C@@H]2CC[C@H]1C/C(=C\c1ccc(F)cc1)C2)c1ccccc1`, the Ki in data set [1] stood at 0.0066 µM; in data set [3] it was 0.027 µM.

In the case of `O[C@@H](CN1[C@@H]2CC[C@H]1C/C(=C/c1ccc(F)cc1)C2)c1ccccc1`, the results for the inhibition constant (Ki) in data set [1] and in data set [3] were 0.018 µM and 0.029 µM, respectively.

As to `OC(CN1CCC(Cc2ccc(F)cc2)CC1)c1ccc(Cl)cc1` (centres undefined) [ELIPRODIL], the Ki in data set [1] came out at 0.094 µM; in data set [3], 0.071 µM.

The Ki is a dissociation constant, usually derived from enzyme kinetics or from competition with a known ligand. What is called logD is lipophilicity at a set pH, counting ionised and neutral species. A lower logD goes with a more hydrophilic compound.
